{"source": "ChEMBL document CHEMBL1142525", "about": "“Molecular probes for imaging myelinated white matter in CNS” (J Med Chem, 2008)", "key": {"[1]": {"assay": "Displacement of [3H]BMB from Sprague-Dawley rat brain myelin fractions", "assay_type": "tissue-based"}, "[2]": {"species": "Rattus norvegicus", "assay": "Binding affinity to Sprague-Dawley rat brain myelin fractions at 12.5 uM after 1 hr by UV spectrophotometry"}, "[3]": {"system": "Brain", "assay": "Drug uptake in Swiss Webster mouse brain at 0.185 MBq, iv after 30 mins", "assay_type": "ADME, organism-based", "settings": "in vivo, 0.5 h"}, "[4]": {"system": "Brain", "assay": "Drug uptake in Swiss Webster mouse brain at 0.185 MBq, iv after 60 mins", "assay_type": "ADME, organism-based", "settings": "in vivo, 1 h"}, "[5]": {"system": "Brain", "assay": "Drug uptake in Swiss Webster mouse brain at 0.185 MBq, iv after 120 mins", "assay_type": "ADME, organism-based", "settings": "in vivo, 2 h"}, "[6]": {"assay": "Partition coefficient, log P in 1-octanol/phosphate buffer at pH 7.40", "assay_type": "physicochemical", "settings": "pH 7.4"}}, "note": "The source made the active and inactive calls. The calls are words filed in the database; no cut-off is given here.", "data": [{"compound": "Nc1ccc(/C=C/c2ccc(I)cc2)cc1", "values": [{"measurement": "Ki", "setting": "[1]", "value": 494, "unit": "nM"}]}, {"compound": "Nc1ccc(/C=C/c2ccc(N)cc2)cc1", "values": [{"measurement": "Ki", "setting": "[1]", "value": 370, "unit": "nM"}]}, {"compound": "CNc1ccc(/C=C/c2ccc(N)cc2)cc1", "values": [{"measurement": "Ki", "setting": "[1]", "value": 126, "unit": "nM"}, {"measurement": "Activity", "setting": "[2]", "value": "Active"}]}, {"compound": "CN(C)c1ccc(/C=C/c2ccc(N)cc2)cc1", "values": [{"measurement": "Ki", "setting": "[1]", "value": 119, "unit": "nM"}, {"measurement": "Activity", "setting": "[2]", "value": "Active"}]}, {"compound": "Nc1ccc(/C=C/c2ccc([125I])cc2)cc1", "values": [{"measurement": "Drug uptake", "setting": "[3]", "value": 2.65, "unit": "% ID/g"}, {"measurement": "Drug uptake", "setting": "[4]", "value": 2.05, "unit": "% ID/g"}, {"measurement": "Drug uptake", "setting": "[5]", "value": 1.12, "unit": "% ID/g"}, {"measurement": "logD", "setting": "[6]", "value": 2.5}]}]}
